Details in all cases: labelled compound; empty-vector values used to normalize
Test [1] deals with ClAAP6.
Test [2] concerns ClAAP3.
Test [3] has as its system T1, ClAAP3.
T1 construct: untagged; expressed in S. cerevisiae 22Δ10α lacking endogenous amino acid transporters
Briefly: [3H]Arg uptake into yeast […]Δ[…]α cells. In kind it is cell-based, Citrullus lanatus.

The test system of test [4] is T2, ClAAP6.
T2 construct: untagged; expressed in S. cerevisiae 22Δ10α lacking endogenous amino acid transporters
Briefly: [3H]Arg uptake into yeast […]Δ[…]α cells. In kind it is cell-based, Citrullus lanatus.

Each structure is given as a SMILES string. Where two headings read alike, the source gives them in different places.

The record followed here is publication PMC6928636, “Broad-Spectrum Amino Acid Transporters ClAAP3 and ClAAP6 Expressed in Watermelon Fruits” (International Journal of Molecular Sciences, 2019).

By Km is commonly meant the concentration of substrate that gives half-maximal velocity. In the case of `O=C(O)[C@@H]1CCCN1` [Pro], the Km was found to be 74 ± 9.8 µM in the test on ClAAP6 [1] and 398 ± 48.6 µM in the test on ClAAP3 [2].

`N=C(N)NCCC[C@H](N)C(=O)O` [Arg]: the Km was found to be 54.1 ± 7.5 µM in the test with ClAAP3 [3] and 579 ± 24.1 µM with ClAAP6 [4].
